Results reported in US7838512B2, “DNA damaging agents in combination with tyrosine kinase inhibitors” (Arch Development Corporation, priority 1994, dated 2010).

Tests used:
tumor [1] = conditions: alone, in vivo; cited from earlier work
pancreatic cancer cell = conditions: in vitro; cited from earlier work
p56/p53^lyn [2] = assay: Anti-Lyn immune complex kinase assay from irradiated (200 cGy) or H2O2-treated HL-60 cells; assay type: cell-based, human; conditions: for effect on X-ray-induced p56/p53^lyn activity: HL-60 cells, 200 cGy, harvested at 12 hours
Procedure: HL-60 myeloid leukemia cells were grown in RPMI-1640 medium containing 15% heat-inactivated fetal bovine serum (FBS) supplemented with 100 units/ml penicillin, […], 2 mM L-glutamine, 1 mM sodium pyruvate and 1 mM non-essential amino acids. Cells in logarithmic growth phase were suspended in complete RPMI-1640 medium with 0.5% FBS 18 hours prior to irradiation.
Irradiation was performed at room temperature using a Gammacell 1000 (Atomic Energy of Canada, Ottawa) under aerobic conditions with a ^137Cs source emitting at a fixed dose rate of 13.3 Gy/min as determined by dosimetry.
Cells (2−3×10^7) were washed twice with ice cold phosphate buffered saline (PBS) and lysed in 2 ml of lysis buffer (20 mM Tris, pH 7.4, 150 mM NaCl, 1% NP-40, 1 mM sodium vanadate, 1 mM phenylmethylsulfonyl fluoride, 1 mM DTT, and […] of leupeptin and aprotinin). After incubation on ice for 30 min, insoluble material was removed by centrifugation at 1400 rpm for 10 min at 4° C. Soluble proteins were precleared by incubation with 5 mg/ml rabbit anti-mouse IgG for 1 hour at 4° C. and then addition of protein A sepharose for 30 min.
The supernatants were incubated with 2.5 μl of anti-human Fyn, 2 μl of anti-human Lyn, 3 μl of anti-human Lyk (N-terminal) or 3 μl of anti-Src antibody (UBI, Lake Placid, N.Y.) for 1 hour at 4° C. followed by 30 min with protein A-sepharose. The immune complexes were washed three times with lysis buffer, once with kinase buffer (20 mM HEPES, pH 7.0, 10 mM MnCl2 and 10 mM MgCl2) and resuspended in 30 μl of kinase buffer containing 1 mCi/ml [γ-^32P]ATP (3000 Ci/mmol; NEN, Boston, Mass.). The reaction was incubated for 10 min at 30° C. and terminated by the addition of 2× SDS sample buffer. The proteins were resolved in 10% SDS-polyacrylamide gels, dried and analyzed by autoradiography.
Immune complexes as prepared for autophosphorylation assays were washed three times with lysis buffer and once with kinase buffer. The beads were resuspended in 30 μl of kinase buffer containing 1 mCi/ml [γ-^32p]ATP and 3-5 mg of acid treated enolase (Sigma). The reaction was incubated for 10 min at 30° C. and terminated by the addition of 2× SDS sample buffer. The proteins were resolved by 10% SDS-PAGE. Equal loading of the enolase was determined by staining with Coomassie blue. The gels were then destained and analyzed by autoradiography. Radioactive bands were also excised from the gel and -quantitated by scintillation counting.

protein-tyrosine kinase = conditions: compared with erbstatin; cited from earlier work
p56/p53^lyn [3] = assay: MMC added directly to the kinase reaction of anti-Lyn immune complexes from untreated HL-60 cells; assay type: biochemical, human; conditions: 10^−5 M MMC added to kinase reaction, 15 min
Procedure: FIG. 4A, FIG. 4B and FIG. 4C. MMC-induced p56/p53^lyn activation is sensitive to tyrosine kinase inhibitors and is not a direct effect. […] Anti-Lyn immunoprecipitates were analyzed for phosphorylation of p56/p53^lyn and enolase. […] Lysates from untreated HL-60 cells were immunoprecipitated with anti-Lyn. […] The reaction was analyzed for phosphorylation of p56/p53^lyn and enolase.
The supernatant fraction was incubated with pre-immune rabbit serum, anti-Fyn, anti-Lyn, anti-Src (UBI, Lake Placid, N.Y.) or anti-cdc2 (sc-54, Santa Cruz Biotechnology, Santa Cruz, Calif.) antibodies for 1 h at 4° C. followed by 30 min after addition of protein A-sepharose. The immune complexes were washed three times with lysis buffer and once with kinase buffer (20 mM HEPES, pH 7.0, 10 mM MnCl2 and 10 mM MgCl2) and resuspended in […] of kinase buffer containing 1 mCi/ml [γ-^32P]ATP (3000 Ci/mmol; NEN, Boston, Mass.) with and without 5-8 mg of acid-treated enolase (Sigma). The reaction was incubated for 15 min at 30° C. and terminated by the addition of 2× SDS sample buffer. The proteins were separated in 10% SDS-polyacrylamide gels and analyzed by autoradiography. Radioactive bands were excised from certain gels and quantitated by scintillation counting.

p56/p53^lyn [4] = assay: p56/p53^lyn activity in U-937 myeloid leukemia cells; assay type: cell-based
p56/p53^lyn [5] = assay: Anti-Lyn immune complex kinase assay (autophosphorylation and enolase phosphorylation) from drug-treated HL-60 cells; assay type: cell-based, human; conditions: for effect of pretreatment on MMC-stimulated p56/p53^lyn activity: 10^−5 M inhibitor 1 h, then MMC 1 h
p34^cdc2 [6] = assay: Anti-cdc2 immunoprecipitates assayed for phosphorylation of H1 histone; assay type: cell-based; conditions: MMC-treated cells
p59^fyn = assay: Anti-Fyn immune complex autophosphorylation assay from MMC-treated HL-60 cells; assay type: cell-based, human; conditions: 10^−5 M MMC, 1 h
p34^cdc2 [7] = assay: Immunoprecipitation of p34^cdc2 and immunoblotting with anti-P-Tyr / anti-cdc2; assay type: cell-based, human; conditions: HL-60 cells, MMC 1 h
Procedure: (§1) Immunoblot analysis. Immune complexes bound to protein A-sepharose were prepared as for the autophosphorylation assays. Proteins were separated in 10% SDS-polyacrylamide gels and transferred to nitrocellulose paper. The residual binding sites were blocked by incubating the filters in 5% dry milk in PBST (PBS/0.05% Tween-20) for 1 h at room temperature. The blots were subsequently incubated with anti-cdc2 or anti-phosphotyrosine (anti-P-Tyr; MAb 4G10, UBI). After washing twice with PBST, the filters were incubated for 1 h at room temperature with anti-mouse IgG (whole molecule) peroxidase conjugate (Sigma) in 5% milk/PBST. The filters were then washed and the antigen-antibody complexes visualized by the ECL detection system (Amersham, Arlington Heights, Ill.).

p56/p53^lyn [8] = assay: Immunoblot of anti-Lyn immunoprecipitates (anti-Lyn, anti-P-Tyr); assay type: cell-based, human; conditions: HL-60 cells, MMC 1 h versus control
Procedure: as §1

p56/p53^lyn [9] = assay: Phosphorylation of cdc2 peptides by anti-Lyn immune complexes; assay type: cell-based, human; conditions: HL-60 cells, MMC 1 h
Procedure: Immune complexes were also resuspended in […] kinase buffer containing 1 mCi/ml [γ-^32P]ATP and either 100 mM cdc2 peptide (amino acids 7 to 20; […]; SEQ ID NO:1) or 100 mM mutated cdc2 peptide with Phe-15 substituted for Tyr-15 ([…]; SEQ ID NO:2). The reactions were incubated for 15 min at 30° C. and terminated by spotting on P81 phosphocellulose discs (GIBCO/BRL). The discs were washed twice with 1% phosphoric acid and twice with water before analysis by liquid scintillation counting.

pp60^c-src = assay: Anti-Src immune complex kinase assay from MMC-treated HL-60 cells; assay type: cell-based, human; conditions: 10^−5 M MMC, 1 h
p56/p53^lyn and p34^cdc2 = assay: Association of p56/p53^lyn with p34^cdc2 (GST-Lyn binding, coimmunoprecipitation); assay type: cell-based, human; conditions: HL-60 cells, 10^−5 M MMC, 1 h
Procedure: Coimmunoprecipitation. Immunoprecipitations were performed with anti-p34^cdc2 at 5 mg/ml cell lysate. Immune complexes were collected on protein A-Sepharose beads (Pharmacia), washed three times with lysis buffer and twice with kinase buffer, resuspended in kinase buffer and then incubated for 10 min at 30° C. in the presence of 1 mCi/ml [γ-^32P]ATP. One aliquot of the kinase reaction was subjected to SDS-PAGE and autoradiography. The other aliquot was washed in lysis buffer to remove free ATP and then boiled in 20 mM Tris-HCl, pH 8.0 containing 0.5% SDS and 1 mM DTT to disrupt protein-protein interaction. After dilution to 0.1% SDS, a secondary immunoprecipitation was then performed by adding anti-Lyn antibody and protein A-Sepharose beads. The anti-Lyn immunoprecipitates were then subjected to SDS-PAGE and autoradiography.
Fusion protein binding assays. The plasmid encoding a glutathione S-transferase (GST)-Lyn (amino acids 1 to 243) fusion protein was obtained from T. Pawson, Toronto, Canada and transfected into E. coli DH5a (Pleiman et al., 1993). The fusion protein was induced with IPTG, purified by affinity chromatography using glutathione-Sepharose beads (Pharmacia) and equilibrated in lysis buffer. HL-60 cell lysates were incubated with 50 mg immobilized GST or GST-Lyn for 2 h at 4° C. […]

[10] = system: c-jun and EGR-1 gene expression; conditions: irradiated HL-60 cells; cited from earlier work
cancer cell = conditions: in vitro; cited from earlier work
tumor [11] = conditions: nude mice; cited from earlier work
pp60^v-src = conditions: cited from earlier work
pp110^gag-fes = conditions: cited from earlier work
EGF-stimulated receptors = EGF-stimulated receptors (Homo sapiens, UniProt P00533); conditions: intact cells, time and dose dependent; cited from earlier work
Sequence of EGF-stimulated receptors (P00533 25-1210): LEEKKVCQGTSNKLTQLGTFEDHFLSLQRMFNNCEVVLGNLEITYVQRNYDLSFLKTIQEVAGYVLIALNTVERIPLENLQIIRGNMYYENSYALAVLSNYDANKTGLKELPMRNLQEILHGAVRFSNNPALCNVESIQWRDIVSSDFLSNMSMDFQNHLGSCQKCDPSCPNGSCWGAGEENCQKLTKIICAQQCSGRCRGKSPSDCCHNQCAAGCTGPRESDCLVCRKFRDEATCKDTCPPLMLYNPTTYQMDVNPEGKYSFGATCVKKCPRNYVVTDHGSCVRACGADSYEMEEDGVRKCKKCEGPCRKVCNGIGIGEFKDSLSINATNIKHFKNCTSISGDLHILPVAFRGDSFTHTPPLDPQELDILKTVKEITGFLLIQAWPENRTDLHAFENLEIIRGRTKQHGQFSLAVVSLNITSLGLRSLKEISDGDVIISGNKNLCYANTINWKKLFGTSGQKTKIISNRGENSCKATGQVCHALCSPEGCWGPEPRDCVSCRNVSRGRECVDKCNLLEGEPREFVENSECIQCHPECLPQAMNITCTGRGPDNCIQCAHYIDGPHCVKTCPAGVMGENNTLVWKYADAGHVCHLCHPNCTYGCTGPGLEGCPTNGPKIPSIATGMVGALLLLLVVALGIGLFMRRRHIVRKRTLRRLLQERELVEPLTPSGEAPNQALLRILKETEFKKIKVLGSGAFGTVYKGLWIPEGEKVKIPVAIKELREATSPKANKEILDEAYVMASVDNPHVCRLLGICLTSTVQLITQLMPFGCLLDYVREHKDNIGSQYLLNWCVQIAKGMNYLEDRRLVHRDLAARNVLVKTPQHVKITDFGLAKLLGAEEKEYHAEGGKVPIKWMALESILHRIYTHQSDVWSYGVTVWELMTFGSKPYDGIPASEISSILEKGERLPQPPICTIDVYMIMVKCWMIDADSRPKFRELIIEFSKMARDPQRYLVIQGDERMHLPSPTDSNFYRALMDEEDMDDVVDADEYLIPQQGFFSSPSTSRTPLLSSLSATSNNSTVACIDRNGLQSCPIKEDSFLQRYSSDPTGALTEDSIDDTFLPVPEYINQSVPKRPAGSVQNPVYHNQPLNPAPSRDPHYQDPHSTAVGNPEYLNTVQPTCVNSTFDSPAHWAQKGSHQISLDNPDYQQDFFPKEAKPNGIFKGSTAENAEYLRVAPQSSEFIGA

O=C1NC(=O)c2cc(Nc3ccccc3)c(Nc3ccccc3)cc21 [4,5-Dianilinophthalimide]
antitumor activity (tumor [1]): in vivo antitumor activity

CC(C)(C)c1cc(C=C(C#N)C#N)cc(C(C)(C)C)c1O [AG17]
pancreatic cancer cell growth (pancreatic cancer cell): inhibit pancreatic cancer cell growth

N#CC(C#N)=Cc1ccc(O)c(O)c1 [AG18]
pancreatic cancer cell growth (pancreatic cancer cell): inhibit pancreatic cancer cell growth

OO [H2O2]
phosphorylation of p56/p53^lyn or enolase (p56/p53^lyn [2]; HL-60 cells treated with 50 mM H2O2): did not show a detectable increase

O=C(O)c1cc(N(Cc2ccccc2O)Cc2cc(O)ccc2O)ccc1O [Lavendustin A]
inhibitory potency relative to erbstatin (protein-tyrosine kinase): about 50 times

CO[C@@]12[C@H](COC(N)=O)C3=C(C(=O)C(C)=C(N)C3=O)N1C[C@@H]1N[C@@H]12 [MMC, Mitomycin C]
kinase activity of anti-Lyn immune complexes incubated with MMC (p56/p53^lyn [3]): decrease in kinase activity
p56/p53^lyn activity (p56/p53^lyn [4]): increases in p56/p53^lyn activity
increase in enolase phosphorylation (p56/p53^lyn [5]; 10^−5 M MMC, 30 min): 4.2 fold
p56/p53^lyn activity (autophosphorylation of anti-Lyn immunoprecipitates) (p56/p53^lyn [5]; 10^−5 M MMC, 1 h): increase
increase in enolase phosphorylation (p56/p53^lyn [5]; 10^−5 M MMC, 12 h): 4.1 fold
p56/p53^lyn activity (phosphorylation of p56/p53^lyn and enolase) (p56/p53^lyn [5]; 10^−6 and 10^−5 M MMC, 1 h): more pronounced stimulation
p56/p53^lyn activity (phosphorylation of p56/p53^lyn and enolase) (p56/p53^lyn [5]; 10^−8 and 10^−7 M MMC, 1 h): Increases
p34^cdc2 kinase activity (H1 histone phosphorylation) (p34^cdc2 [6]): loss of kinase activity
autophosphorylation of p59^fyn (p59^fyn): decreased
tyrosine phosphorylation of p34^cdc2 (anti-P-Tyr reactivity of anti-cdc2 precipitates) (p34^cdc2 [7]): increase in reactivity
tyrosine phosphorylation of p56/p53^lyn (anti-P-Tyr immunoblot) (p56/p53^lyn [8]): increase in tyrosine phosphorylation
phosphorylation of mutated cdc2 peptide (Tyr-15 to Phe-15) by anti-Lyn complexes (p56/p53^lyn [9]): little phosphorylation
stimulation of cdc2 peptide phosphorylation by anti-Lyn immune complexes (p56/p53^lyn [9]; versus control cells, cdc2 peptide amino acids 7 to 20): ~2 fold
pp60^c-src activity (pp60^c-src): decrease
interaction between p56/p53^lyn and p34^cdc2 (p56/p53^lyn and p34^cdc2): induces an interaction

CC(=O)N[C@@H](CS)C(=O)O [NAC, N-acetyl cysteine]
effect on X-ray-induced p56/p53^lyn activity (p56/p53^lyn [2]; 30 mM NAC 1 hour): little effect
effect on induction of c-jun and EGR-1 gene expression [10]: completely blocks

COc1ccc(/C=C(\C#N)c2cccnc2)cc1OC [RG-13022]
cancer cell proliferation (cancer cell): suppress
tumor growth (tumor [11]): suppress

N#C/C(=C\c1cc(Cl)cc(Cl)c1)c1cccnc1 [RG-14620, (Z)-alpha-[(3,5-dichlorophenyl)methylene]-3-pyridylacetonitrile]
cancer cell proliferation (cancer cell): suppress
tumor growth (tumor [11]): suppress

N#C/C(=C\c1ccc(O)c(O)c1)C(N)=S [T47]
pancreatic cancer cell growth (pancreatic cancer cell): inhibit pancreatic cancer cell growth

Cc1c[nH]c2c1[C@@]13C[C@@H]1CN(C(=O)c1cc4cc(NC(=O)c5cc6ccccc6o5)ccc4[nH]1)C3=CC2=O [adozelesin]
p56/p53^lyn and enolase phosphorylation (p56/p53^lyn [5]; 2×10^−6 M, 1 h): stimulation of p56/p53^lyn and enolase phosphorylation

N.N.[Cl][Pt][Cl] [cis-platinum]
p56/p53^lyn kinase activity (phosphorylation of p56/p53^lyn and enolase) (p56/p53^lyn [5]; 10^−5 M, 1 h): stimulation of the p56/p53^lyn kinase

O=c1c(-c2ccc(O)cc2)coc2cc(O)cc(O)c12 [genistein]
effect on X-ray-induced p56/p53^lyn activity (p56/p53^lyn [2]; 10 μM inhibitor 1 hour): inhibited
effect of pretreatment on MMC-stimulated p56/p53^lyn activity (p56/p53^lyn [5]): completely blocks
inhibitory activity against pp60^v-src (pp60^v-src): specific inhibitory activity
inhibitory activity against pp110^gag-fes (pp110^gag-fes): specific inhibitory activity

CO[C@H]1[C@@H](OC)C[C@H](C)[C@@H](OC)C2=CC(=O)C=C(NC(=O)/C(C)=C/C=C\[C@H](OC)[C@@H](OC(N)=O)/C(C)=C/[C@@H]1C)C2=O [herbimycin A]
effect on X-ray-induced p56/p53^lyn activity (p56/p53^lyn [2]; 10 μM inhibitor 1 hour): inhibited
effect of pretreatment on MMC-stimulated p56/p53^lyn activity (p56/p53^lyn [5]): completely blocks
autophosphorylation of EGF-stimulated receptors (EGF-stimulated receptors): inhibit the autophosphorylation
